# Experimental data taken from patent US6979686B1, “Substituted pyrazoles as p38 kinase inhibitors” (Pharmacia Corporation, priority 2001, dated 2005).
# Like-named read-outs stand apart in the source and are kept apart here.
# Assays:
# [1] = tested on: TNF-α, U937 human histiocytic lymphoma cell line; assay: LPS stimulation of TNF production by U937 cells; format: cell-based; conditions: for inhibition at 1 µM: U-937, @ 1.0 uM, read-out: U937 Cell % inhib @ conc.
# Method in brief: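 U937 cells differentiated 24 h with 20 ng/ml PMA, rested 24-48 h, used at 2 million cells/ml. Compounds in 0.1% DMSO final; LPS (E. coli, 100 ng/ml final) stimulation for 4 h at 37° C. Released TNF-α measured by ELISA; IC50 (μM).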
# [2] = biological target: T1, human p38 kinase alpha (Homo sapiens, UniProt Q16539); assay: p38 kinase in vitro assay, phosphorylation of biotinylated PHAS-I with 32P-ATP; format: biochemical; conditions: for IC50: read-out: P38 alpha kinase IC50; for inhibition at 1 µM: read-out: P38 alpha kinase % inhib @ conc.
# T1 construct: GST (N, cleaved yes); made in house; host or cells: E. coli DH10B
# T1 sequence (Q16539 whole entry): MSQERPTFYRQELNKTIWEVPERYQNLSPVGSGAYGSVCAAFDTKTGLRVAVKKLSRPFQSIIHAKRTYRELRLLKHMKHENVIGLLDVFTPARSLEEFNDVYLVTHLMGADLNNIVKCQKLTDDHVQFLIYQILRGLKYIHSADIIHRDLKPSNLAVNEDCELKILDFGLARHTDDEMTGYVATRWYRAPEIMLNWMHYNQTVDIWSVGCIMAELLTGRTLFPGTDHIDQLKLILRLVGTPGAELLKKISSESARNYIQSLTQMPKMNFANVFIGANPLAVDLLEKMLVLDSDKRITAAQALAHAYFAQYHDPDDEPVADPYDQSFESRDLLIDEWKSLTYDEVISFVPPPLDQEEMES
# [3] = Homo sapiens, U-937, TNF production, human U937 cells stimulated with LPS, read-out: U937 Cell IC50
# [4] = @ 1.0 uM, TNF production, U937 cells stimulated with LPS
# [5] = Homo sapiens, TNF production in human U937 cells stimulated with LPS
# [6] = in vitro P38-alpha kinase inhibition
# [7] = Homo sapiens, TNF production, U937 cells stimulated with LPS
# [8] = Homo sapiens, U-937, TNF production in human U937 cells stimulated with LPS, read-out: U937 Cell IC50
# [9] = Homo sapiens, TNF production, LPS-stimulated U937 cells
# [10] = @ 10.0 uM, TNF production, U937 cells stimulated with LPS
# [11] = TNF production, U937 cells stimulated with LPS, read-out: U937 Cell IC50, uM or % inhib @ conc. (uM): IC50
# [12] = @ 1.0 uM, TNF production in human U937 cells stimulated with LPS
# [13] = @ 10.0 uM, TNF production, LPS-stimulated U937 cells
smiles,measurement,setting,value
COc1cccc(CC(=O)N2CCC(c3[nH]nc(-c4ccc(F)cc4)c3-c3ccncc3)CC2)c1 [Example B-1370],IC50,[1]; [3],0.77 µM
same,IC50,[2]; in vitro P38-alpha kinase,< 100 nM
COc1ccccc1C(=O)NCCc1[nH]nc(-c2ccc(F)cc2)c1-c1ccncc1 [Example B-0995],U937 Cell % inhib @ conc. (uM),[1]; [4],14.0% @
same,P38 alpha kinase % inhib @ conc. (uM),[2]; @ 1.0 uM,53.0% @
O=C(NCc1[nH]nc(-c2ccc(F)cc2)c1-c1ccncc1)c1ccccc1C(F)(F)F [Example B-0016],IC50,[1]; [3],3.98 µM
same,inhibition at 1 µM,[2]; @ 1.0 uM,94%
CC(C)=CC(=O)NC(C)c1[nH]nc(-c2ccc(F)cc2)c1-c1ccncc1 (stereo not shown) [Example B-0547],inhibition at 1 µM,[1]; [5],21%
same,IC50,[2]; [6],1240 nM
O=S(=O)(NCCc1[nH]nc(-c2ccc(F)cc2)c1-c1ccncc1)c1cc(Cl)c(Cl)s1 [Example B-1080],inhibition at 1 µM,[1]; [7],28%
same,IC50,[2]; [6],190 nM
COc1ccc(CC(=O)NCc2[nH]nc(-c3ccc(F)cc3)c2-c2ccncc2)cc1OC [Example B-0034],IC50,[1]; [3],10 µM
same,inhibition at 1 µM,[2]; @ 1.0 uM,95%
CC(NS(=O)(=O)C=Cc1ccccc1)c1[nH]nc(-c2ccc(F)cc2)c1-c1ccncc1 (stereo not shown) [Example B-0565],IC50,[1]; [8],0.59 µM
same,IC50,[2]; [6],230 nM
O=C(NC(Cc1ccccc1)c1[nH]nc(-c2ccc(F)cc2)c1-c1ccncc1)c1ccc(F)cc1 (stereo not shown) [Example B-0800],IC50,[1]; [3],> 1 µM
same,IC50,[2]; [6],1010 nM
Cc1ccc(C)c(S(=O)(=O)NCCCc2[nH]nc(-c3ccc(F)cc3)c2-c2ccncc2)c1 [Example B-1273],inhibition at 1 µM,[1]; [9],36%
same,IC50,[2]; in vitro P38-alpha kinase,< 100 nM
O=S(=O)(NCCc1[nH]nc(-c2ccc(F)cc2)c1-c1ccncc1)c1ccc2ccccc2c1 [Example B-1068],inhibition at 1 µM,[1]; [7],24%
same,IC50,[2]; [6],480 nM
O=S(=O)(c1ccccc1C(F)(F)F)N1CCC(c2[nH]nc(-c3ccc(F)cc3)c2-c2ccncc2)CC1 [Example B-1460],inhibition at 1 µM,[1]; [9],29%
same,IC50,[2]; in vitro P38-alpha kinase,960 nM
C=CCOC(=O)NC(Cc1ccccc1)c1[nH]nc(-c2ccc(F)cc2)c1-c1ccncc1 (stereo not shown) [Example B-0801],IC50,[1]; [3],> 1 µM
same,IC50,[2]; [6],670 nM
O=S(=O)(NC(Cc1ccccc1)c1[nH]nc(-c2ccc(F)cc2)c1-c1ccncc1)c1cccs1 (stereo not shown) [Example B-0765],inhibition at 1 µM,[1]; [5],29%
same,IC50,[2]; [6],300 nM
Cc1c(-c2ccncc2)c(-c2ccc(F)cc2)nn1CC(=O)N(C)CCN1CCOCC1 [Example B-2395],"U937 Cell IC50, uM or % inhib @ conc. (uM): % inhib",[1]; [10],28.0% @
same,"P38 alpha kinase IC50, uM or % inhib @ conc. (uM): % inhib",[2]; @ 10.0 uM,32.0% @
Cc1c(-c2ccncc2)c(-c2ccc(F)cc2)nn1CC(=O)N(C)CCn1ccnc1 [Example B-2393],IC50,[1]; [11],> 10 µM
same,"P38 alpha kinase IC50, uM or % inhib @ conc. (uM): % inhib",[2]; @ 10.0 uM,43.0% @
CNC(=O)CCC(NC(=O)Nc1ccccc1F)c1[nH]nc(-c2ccc(F)cc2)c1-c1ccncc1 (stereo not shown) [Example B-0881],IC50,[1]; [3],> 1 µM
same,IC50,[2]; [6],1360 nM
O=C(NCCc1[nH]nc(-c2ccc(F)cc2)c1-c1ccncc1)c1cccc(Cl)c1Cl [Example B-1132],inhibition at 1 µM,[1]; [7],11%
same,IC50,[2]; [6],720 nM
COc1cccc(CC(=O)NCCc2[nH]nc(-c3ccc(F)cc3)c2-c2ccncc2)c1 [Example B-1001],U937 Cell % inhib @ conc. (uM),[1]; [4],31.0% @
same,P38 alpha kinase % inhib @ conc. (uM),[2]; @ 1.0 uM,63.0% @
CNC(=O)CCC(NC(=O)c1ccno1)c1[nH]nc(-c2ccc(F)cc2)c1-c1ccncc1 (stereo not shown) [Example B-0869],IC50,[1]; [3],> 1 µM
same,IC50,[2]; [6],4190 nM
Cc1cccc(OC(=O)c2ccc(NC(=O)Cn3nc(-c4ccc(F)cc4)c(-c4ccncc4)c3C)cc2)c1 [Example B-2444],"U937 Cell IC50, uM or % inhib @ conc. (uM): % inhib",[1]; [10],7.0% @
same,"P38 alpha kinase IC50, uM or % inhib @ conc. (uM): % inhib",[2]; @ 10.0 uM,89.0% @
CC(NC(=O)c1cccc(C#N)c1)c1[nH]nc(-c2ccc(F)cc2)c1-c1ccncc1 (stereo not shown) [Example B-0676],U937 Cell % inhib @ conc. (uM),[1]; [12],22.0% @
same,IC50,[2]; [6],2090 nM
N#Cc1cccc(S(=O)(=O)N2CCC(c3[nH]nc(-c4ccc(F)cc4)c3-c3ccncc3)CC2)c1 [Example B-1469],inhibition at 1 µM,[1]; [9],14%
same,IC50,[2]; in vitro P38-alpha kinase,370 nM
Cc1noc(C)c1S(=O)(=O)NCCCc1[nH]nc(-c2ccc(F)cc2)c1-c1ccncc1 [Example B-1281],inhibition at 1 µM,[1]; [9],85%
same,IC50,[2]; in vitro P38-alpha kinase,< 100 nM
O=C(NC(Cc1ccccc1)c1[nH]nc(-c2ccc(F)cc2)c1-c1ccncc1)c1ccno1 (stereo not shown) [Example B-0808],IC50,[1]; [3],> 1 µM
same,IC50,[2]; [6],3090 nM
Cc1cc(Cl)ccc1OCC1SCCN1C(=O)Cn1nc(-c2ccc(F)cc2)c(-c2ccncc2)c1C (stereo not shown) [Example B-2405],IC50,[1]; [11],> 10 µM
same,"P38 alpha kinase IC50, uM or % inhib @ conc. (uM): % inhib",[2]; @ 100.0 uM,47% @
CC(C)C(=O)NC(Cc1ccccc1)c1[nH]nc(-c2ccc(F)cc2)c1-c1ccncc1 (stereo not shown) [Example B-0831],IC50,[1]; [3],> 1 µM
same,IC50,[2]; [6],900 nM
COc1ccc(CC(=O)NCCc2[nH]nc(-c3ccc(F)cc3)c2-c2ccncc2)cc1OC [Example B-0999],U937 Cell % inhib @ conc. (uM),[1]; [4],24.0% @
same,P38 alpha kinase % inhib @ conc. (uM),[2]; @ 1.0 uM,61.0% @
CNC(=O)NC(Cc1ccccc1)c1[nH]nc(-c2ccc(F)cc2)c1-c1ccncc1 (stereo not shown) [Example B-0775],IC50,[1]; [8],> 1 µM
same,IC50,[2]; [6],600 nM
O=C(NCCc1[nH]nc(-c2ccc(F)cc2)c1-c1ccncc1)Nc1ccc(Br)cc1 [Example B-0938],U937 Cell % inhib @ conc. (uM),[1]; [4],29.0% @
same,P38 alpha kinase % inhib @ conc. (uM),[2]; @ 1.0 uM,51.0% @
O=C(NCc1[nH]nc(-c2ccc(F)cc2)c1-c1ccncc1)c1ccc(F)c(F)c1F [Example B-0026],IC50,[1]; [3],3.27 µM
same,inhibition at 1 µM,[2]; @ 1.0 uM,96%
COc1ccc(CC(=O)NC(C)c2[nH]nc(-c3ccc(F)cc3)c2-c2ccncc2)cc1 (stereo not shown) [Example B-0549],inhibition at 1 µM,[1]; [5],22%
same,IC50,[2]; [6],2220 nM
CCCCCc1cccc(C(C)NC(=O)Cn2nc(-c3ccc(F)cc3)c(-c3ccncc3)c2C)c1 (stereo not shown) [Example B-2354],U937 Cell % inhib @ conc.,[1]; [13],25.0% @
same,P38 alpha kinase % inhib @ conc.,[2]; @ 10.0 uM,65.0% @
CCOC(=O)C(CCSC)NC(=O)NCc1[nH]nc(-c2ccc(F)cc2)c1-c1ccncc1 (stereo not shown) [Example B-0147],U937 Cell % inhib @ conc.,[1]; [4],22.0% @
same,P38 alpha kinase % inhib @ conc.,[2]; @ 1.0 uM,44.0% @
O=S(=O)(NCCCc1[nH]nc(-c2ccc(F)cc2)c1-c1ccncc1)c1cccc(Cl)c1Cl [Example B-1250],inhibition at 1 µM,[1]; [9],18%
same,IC50,[2]; in vitro P38-alpha kinase,140 nM
Cc1c(-c2ccncc2)c(-c2ccc(F)cc2)nn1CC(=O)N1CCC[C@H]1CN1CCCC1 [Example B-2384],U937 Cell % inhib @ conc.,[1]; [13],10.0% @
same,P38 alpha kinase % inhib @ conc.,[2]; @ 100.0 uM,49% @
N#Cc1ccc(S(=O)(=O)N2CCC(c3[nH]nc(-c4ccc(F)cc4)c3-c3ccncc3)CC2)cc1 [Example B-1475],inhibition at 1 µM,[1]; [9],24%
same,IC50,[2]; in vitro P38-alpha kinase,2100 nM
O=C(c1cccs1)N1CCC(c2[nH]nc(-c3ccc(F)cc3)c2-c2ccncc2)CC1 [Example B-1384],IC50,[1]; [3],0.37 µM
same,IC50,[2]; in vitro P38-alpha kinase,570 nM
Cc1c(-c2ccncc2)c(-c2ccc(F)cc2)nn1CC(=O)NC1CCCC1 [Example B-2333],U937 Cell % inhib @ conc.,[1]; [13],36.0% @
same,P38 alpha kinase % inhib @ conc.,[2]; @ 10.0 uM,58.0% @
CC(=O)OC(C)(C)C(=O)NC(C)c1[nH]nc(-c2ccc(F)cc2)c1-c1ccncc1 (stereo not shown) [Example B-0535],IC50,[1]; [8],0.87 µM
same,IC50,[2]; [6],440 nM
O=S(=O)(c1ccccc1F)N1CCC(c2[nH]nc(-c3ccc(F)cc3)c2-c2ccncc2)CC1 [Example B-1377],IC50,[1]; [3],5 µM
same,IC50,[2]; in vitro P38-alpha kinase,120 nM
CN(C)CCNC(=O)NCCCc1[nH]nc(-c2ccc(F)cc2)c1-c1ccncc1 [Example B-1302],inhibition at 1 µM,[1]; [9],11%
same,IC50,[2]; in vitro P38-alpha kinase,23 nM
COc1ccc(C2OCCN2C(=O)Cn2nc(-c3ccc(F)cc3)c(-c3ccncc3)c2C)cc1OC (stereo not shown) [Example B-2399],"U937 Cell IC50, uM or % inhib @ conc. (uM): % inhib",[1]; [10],18.0% @
same,"P38 alpha kinase IC50, uM or % inhib @ conc. (uM): % inhib",[2]; @ 10.0 uM,69.0% @
O=C(NCCc1[nH]nc(-c2ccc(F)cc2)c1-c1ccncc1)NC1CC1c1ccccc1 (racemic) [Example B-0941],U937 Cell % inhib @ conc. (uM),[1]; [4],25.0% @
same,P38 alpha kinase % inhib @ conc. (uM),[2]; @ 1.0 uM,81.0% @
CC(NC(=O)c1cccc(C(F)(F)F)c1F)c1[nH]nc(-c2ccc(F)cc2)c1-c1ccncc1 (stereo not shown) [Example B-0687],U937 Cell % inhib @ conc. (uM),[1]; [12],15.0% @
same,IC50,[2]; [6],10100 nM
